In test [1] the test system is spasticity. As to conditions: CREAE mice; cited from earlier work.
Test [2] relates to acute thermal nociception. The note with it: rats; Hargraves test; cited from earlier work.
The subject of test [3] is neuropathic pain. The note with it: rats; Chung spinal nerve ligation model; cited from earlier work.
In test [4] the target is T1, Rat FAAH (Rattus norvegicus, UniProt P97612).
T1 construct: expressed in transfected cells
T1 sequence (P97612 1-579): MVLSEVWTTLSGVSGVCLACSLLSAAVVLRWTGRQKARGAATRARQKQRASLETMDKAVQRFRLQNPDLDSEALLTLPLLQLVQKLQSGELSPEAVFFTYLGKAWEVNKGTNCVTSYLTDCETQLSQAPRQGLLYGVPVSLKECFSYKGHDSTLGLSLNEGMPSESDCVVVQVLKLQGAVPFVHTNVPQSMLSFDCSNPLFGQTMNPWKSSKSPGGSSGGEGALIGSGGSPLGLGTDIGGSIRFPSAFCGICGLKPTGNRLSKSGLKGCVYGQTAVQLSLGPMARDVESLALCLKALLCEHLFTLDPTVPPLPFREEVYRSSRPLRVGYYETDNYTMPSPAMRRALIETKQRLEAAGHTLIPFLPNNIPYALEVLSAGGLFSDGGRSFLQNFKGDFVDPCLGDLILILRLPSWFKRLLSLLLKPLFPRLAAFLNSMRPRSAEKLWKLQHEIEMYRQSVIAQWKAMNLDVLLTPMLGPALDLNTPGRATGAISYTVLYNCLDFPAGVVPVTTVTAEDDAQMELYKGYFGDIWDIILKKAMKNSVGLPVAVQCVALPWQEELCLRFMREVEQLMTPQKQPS
Description: Assay Method 2: FAAH assay, 3H-anandamide hydrolysis in cell homogenate. Type of test: biochemical. As to conditions: average of results obtained, > value = solubility limit or highest concentration tested.

The target in test [5] is T2, FAAH (Homo sapiens, UniProt O00519).
T2 sequence (O00519 1-579): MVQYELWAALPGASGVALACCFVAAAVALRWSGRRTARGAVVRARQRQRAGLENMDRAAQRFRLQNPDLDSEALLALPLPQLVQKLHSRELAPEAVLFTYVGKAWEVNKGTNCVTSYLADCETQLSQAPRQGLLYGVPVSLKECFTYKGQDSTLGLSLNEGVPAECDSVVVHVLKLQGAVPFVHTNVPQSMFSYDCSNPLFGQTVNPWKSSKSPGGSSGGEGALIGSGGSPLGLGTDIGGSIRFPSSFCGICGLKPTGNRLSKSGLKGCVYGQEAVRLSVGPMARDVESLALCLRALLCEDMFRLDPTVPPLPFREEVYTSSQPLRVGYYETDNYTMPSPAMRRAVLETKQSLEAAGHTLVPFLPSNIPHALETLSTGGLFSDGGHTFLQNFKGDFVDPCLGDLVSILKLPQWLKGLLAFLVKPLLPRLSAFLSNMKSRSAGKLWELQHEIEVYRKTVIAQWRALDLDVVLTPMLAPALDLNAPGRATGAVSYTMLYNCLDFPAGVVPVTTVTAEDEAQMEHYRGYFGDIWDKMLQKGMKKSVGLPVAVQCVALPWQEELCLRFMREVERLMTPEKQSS
Description: Assay Method 1: FAAH assay, 3H-anandamide hydrolysis in cell homogenate.
Description: The assay mixture consisted of 50 μL of the cell homogenate, 10 μL of the test compound, and 40 μL of anandamide [1-^3H-ethanolamine] (^3H-AEA, Perkin-Elmer, 10.3 Ci/mmol), which was added last, for a final tracer concentration of 80 nM. The reaction mixture was incubated at rt for 1 h. During the incubation, 96-well Multiscreen filter plates (catalog number MAFCNOB50; Millipore, Bedford, Mass., USA) were loaded with 25 μL of activated charcoal (Multiscreen column loader, catalog number MACL09625, Millipore) and washed once with 100 μL of MeOH. […] After the 1 h incubation, 60 μL of the reaction mixture were transferred to the charcoal plates, which were then assembled on top of the DYNEX plates using Centrifuge Alignment Frames (catalog number MACF09604, Millipore). The unbound labeled ethanolamine was centrifuged through to the bottom plate (5 min at 2000 rpm), which was preloaded with the scintillant, as described above. The plates were sealed and left at rt for 1 h before counting on a Hewlett Packard TopCount. • Assay Method 2

Test [6] has as its system thermal nociception. As to conditions: rat hot plate test; cited from earlier work. For orientation: Hot-plate and tail-flick tests time the reaction to a heat stimulus.
Test [7] has as its system thermal nociception. The note with it: rats; tail emersion test; cited from earlier work.
Test [8] deals with T2, FAAH. As to conditions: cited from earlier work.
The conditions of test [9]: rat formalin test; cited from earlier work.
Test [10] deals with anxiety. As to conditions: rats; zero plus maze; cited from earlier work.

Turning to `CCCCCCCCCCCCCCCCS(=O)(=O)F` [AM374], the reduction of spasticity entry in test [1] is listed as “significantly reduce spasticity”.
In the case of `Cc1nc(-c2ccccc2)c(-c2ccccc2)n1CCCCCCNC(=O)Oc1ccccc1F` [BMS-1], the analgesic effect result in test [2] and in [3] was “analgesic effect” in each case.
`O=C(Nc1cccc2nccn12)N1CCN(Cc2ccc3c(c2)OC(F)(F)O3)CC1` [Example 71, 4-(2,2-Difluoro-benzo[1,3]dioxol-5-ylmethyl)-piperazine-1-carboxylic acid imidazo[1,2-a]pyridin-5-ylamide]: the concentration for half-maximal inhibition (IC50) in test [4] and in [5] was 140 nM each time.
For `O=C(Nc1ccn2ccnc2c1)N1CCN(Cc2ccc3c(c2)OC(F)(F)O3)CC1` [Example 73, 4-(2,2-Difluoro-benzo[1,3]dioxol-5-ylmethyl)-piperazine-1-carboxylic acid imidazo[1,2-a]pyridin-7-ylamide], the IC50 is 1600 nM in [4] and 1400 nM in test [5].
In the case of `N#Cc1cccnc1Oc1cccc(CN2CCN(C(=O)Nc3cnc4[nH]ccc4c3)CC2)c1` [Example 77, 4-[3-(3-Cyano-pyridin-2-yloxy)-benzyl]-piperazine-1-carboxylic acid (1H-pyrrolo[2,3-b]pyridin-5-yl)-amide], the IC50 was found to be 2000 nM in test [4] and 48 nM in [5].
As to `N#Cc1ccnc(Oc2cccc(CN3CCN(C(=O)Nc4cnc5[nH]ccc5c4)CC3)c2)c1` [Example 78, 4-[3-(4-Cyano-pyridin-2-yloxy)-benzyl]-piperazine-1-carboxylic acid (1H-pyrrolo[2,3-b]pyridin-5-yl)-amide], the IC50 in [4] turned out to be 5000 nM; in test [5], 84 nM.
Taken in the same sequence, the figures for `N#Cc1ccc(Oc2cccc(CN3CCN(C(=O)Nc4cnc5[nH]ccc5c4)CC3)c2)nc1` [Example 79, 4-[3-(5-Cyano-pyridin-2-yloxy)-benzyl]-piperazine-1-carboxylic acid (1H-pyrrolo[2,3-b]pyridin-5-yl)-amide] were 270 nM and 22 nM.
Regarding `O=C(Nc1cnc2[nH]ccc2c1)N1CCN(Cc2cccc(Oc3ccc(C(F)(F)F)nn3)c2)CC1` [Example 80, 4-[3-(6-Trifluoromethyl-pyridazin-3-yloxy)-benzyl]-piperazine-1-carboxylic acid (1H-pyrrolo[2,3-b]pyridin-5-yl)-amide], the IC50 in [4] was 180 nM; in [5], 3 nM.
Taken in the same sequence, the figures for `O=C(Nc1cnc2[nH]ccc2c1)N1CCC(Cc2ccc(Cl)c(Cl)c2)CC1` [Example 81, 4-(3,4-Dichloro-benzyl)-piperidine-1-carboxylic acid (1H-pyrrolo[2,3-b]pyridin-5-yl)-amide] were 3 nM and 3 nM.
On to `O=C(Nc1cnc2ccccn12)N1CCC(Cc2ccc(Cl)c(Cl)c2)CC1` [Example 82, 4-(3,4-Dichlorobenzyl)-N-imidazo[1,2-a]pyridin-3-ylpiperidine-1-carboxamide], for which the values for the IC50 in test [4] and in test [5] were 800 nM and 900 nM, respectively.
Taken in the same sequence, the figures for `O=C(Nc1cnc2cccnn12)N1CCC(Cc2ccc(Cl)c(Cl)c2)CC1` [Example 83, 4-(3,4-Dichlorobenzyl)-N-imidazo[1,2-b]pyridazin-3-ylpiperidine-1-carboxamide] were 30 nM and 15 nM.
For `O=C(Nc1nocc1Cl)N1CCC(Cc2cnc3ccccc3c2)CC1` [Example 84, 4-Quinolin-3-ylmethyl-piperidine-1-carboxylic acid (4-chloro-isoxazol-3-yl)-amide], the IC50 turned out to be 35 nM in [4] and 14 nM in [5].
Taken in the same sequence, the figures for `O=C(Nc1nocc1Cl)N1CCN(Cc2ccc3c(c2)OC(F)(F)O3)CC1` [Example 86, 4-(2,2-Difluoro-benzo[1,3]dioxol-5-ylmethyl)-piperazine-1-carboxylic acid (4-chloro-isoxazol-3-yl)-amide] were 280 nM and 73 nM.
Take `O=C(CCCCCCc1ccccc1)c1ncc(-c2ccccn2)o1` [OL-135]: the “analgesic efficacy / activity” value in test [6] is reported as “analgesic activity”. The analgesic activity result in test [7] is “analgesic activity”. In addition, the “inhibition of FAAH” value in [8] is given as “potent inhibitor”.
Regarding `NC(=O)c1cccc(-c2cccc(OC(=O)NC3CCCCC3)c2)c1` [URB-597], the “analgesic efficacy / activity” value in [6] is listed as “analgesic efficacy”. Moreover, in test [9], the analgesic efficacy result is recorded as “analgesic efficacy”. Also, the “efficacy in anxiety model” value in test [10] is recorded as “efficacy”.

Broadly, the IC50 is the concentration at which inhibition is half-maximal.

Values taken from patent US8877769B2, “Heteroaryl-substituted urea modulators of fatty acid amide hydrolase” (Janssen Pharmaceutica NV, priority 2008, dated 2014).
